Assay results taken from US6140362A, “Method for inhibiting the growth of mammalian cells” (Rohm and Haas Company, priority 1997, dated 2000).

What was measured:
[1] = test system: mouse lymphoma cell line L5178Y; test: Growth inhibition of mouse lymphoma cells (L5178Y), 48 h; type: cell-based; settings: 48 hours; for inhibition at 2 µM: 2 micromolar; for inhibition at 10 µM: 10 micromolar, read-out: Inhibition of growth
Experimental: Effects of compounds on growth of mouse lymphoma cell line L5178Y, were determined as follows. Cells were grown in Fischer's medium (obtained from Life Technologies, Inc., Gaithersburg, Md.) containing 0.24 grams per liter (g/l) sodium pyruvate, 1.12 g/l surfactant (Pluronic F-68, from BASF Corporation, Parsippany, N.J.), and 10% by volume (10% v/v) heat-inactivated horse serum (obtained from Life Technologies, Inc) at 37° C. To 30 ml aliquots of cell suspension (2×10^4 cells per milliliter (mL)) in exponential growth phase were added test compounds dissolved in dimethylsulfoxide (DMSO) at various concentrations such that the final DMSO concentration in the mixtures was 0.25%. Tubes were gassed with 5% CO2 then incubated on a roller drum apparatus. After 48 hours the cells were treated with 0.1% trypsin (Life Technologies, Inc.,) for 10 minutes and counted in a Coulter Counter equipped with a 140 micrometer (μM) aperture. Percent inhibition of growth was calculated by comparing the number of cells in assays containing test compound with the number of cells in controls lacking the test compound.

Leukemia (SR) = test: Growth inhibition of human tumor cell lines: Leukemia (SR); type: cell-based; settings: cell line A = Leukemia (SR), NCI testing
Experimental: (§1) Selected compounds were evaluated by the National Cancer Institute, Bethesda, Md. against 60 human tumor cell lines according to procedures described in Principles and Practices of Oncology, volume 3, issue number 10, pp. 1-12. Results of the testing against representative cell lines including the test compound number, and the GI50 values (μM) are set forth in Table 3. The GI50 value is the concentration required to inhibit cell growth by 50% as compared to untreated control cultures.

[2] = test system: Nonsmall cell lung cancer (NCIH522); test: Growth inhibition of human tumor cell lines: Nonsmall cell lung cancer (NCIH522); type: cell-based; settings: NCI-H522, cell line B = Nonsmall cell lung cancer (NCIH522), NCI testing
Experimental: as §1

[3] = test system: Small cell lung cancer (DMS 114); test: Growth inhibition of human tumor cell lines: Small cell lung cancer (DMS 114); type: cell-based; settings: cell line C = Small cell lung cancer (DMS 114), NCI testing
Experimental: as §1

Colon cancer (HCT116) = test: Growth inhibition of human tumor cell lines: Colon cancer (HCT116); type: cell-based; settings: HCT-116, cell line D = Colon cancer (HCT116), NCI testing
Experimental: as §1

CNS cancer (SF539) = test: Growth inhibition of human tumor cell lines: CNS cancer (SF539); type: cell-based; settings: SF-539, cell line E = CNS cancer (SF539), NCI testing
Experimental: as §1

Melanoma (SKMEL-2) = test: Growth inhibition of human tumor cell lines: Melanoma (SKMEL-2); type: cell-based; settings: SK-MEL-2, cell line F = Melanoma (SKMEL-2), NCI testing
Experimental: as §1

Ovarian cancer (OVCAR8) = test: Growth inhibition of human tumor cell lines: Ovarian cancer (OVCAR8); type: cell-based; settings: OVCAR-8, cell line G = Ovarian cancer (OVCAR8), NCI testing
Experimental: as §1

Renal cancer (CAKI1) = test: Growth inhibition of human tumor cell lines: Renal cancer (CAKI1); type: cell-based; settings: CAKI-1, cell line H = Renal cancer (CAKI1), NCI testing
Experimental: as §1

mouse lymphoma cells = test: Effect on mitosis in mouse lymphoma cells (visible chromosomes); type: cell-based; settings: 2 μM, 7 hours
Experimental: Compound 14 was dissolved in DMSO at 0.8 mM and 75 microliters (μL) of this solution was added to tubes containing 30 ml of cell suspension at 1.2×10^5 /mL grown under the conditions described in Example 1. Cells in control tubes received 75 μL of DMSO alone. Tubes were gassed with 5% CO2, then incubated on a roller drum apparatus for 7 hours. The cells were treated with hypotonic medium (3-fold diluted growth medium) and fixed in acetic acid:methanol (1:3, v/v). After staining with aceto-orcein (method described in L. La Cour, Stain Technology, vol. 16, pp. 169-174 (1941)) the percentage of cells with visible chromosomes in treated and control cells was determined based on examination of 400 cells per sample.

tubulin [4] = test: Inhibition of microtubule assembly; type: biochemical, calf; settings: preincubated 1 h at 37° C.
Experimental: (§2) Compounds were evaluated for their ability to inhibit tubulin assembly into microtubules by comparing the extent of cold-reversible assembly in the presence of each test compound with controls lacking the test compound. Tubulin was isolated from calf brain tissue by two cycles of assembly/disassembly as described by Vallee, R. B. in Methods in Enzymology, vol. 134, pp. 89-104. Assay mixtures contained 1 mg/ml of purified tubulin in 1 M sodium glutamate, pH 6.6, 1 millimolar (mM) MgCl2, and the test compound, which was added as a solution in DMSO. The final concentration of DMSO in each assay was 2% (v/v). Assay mixtures were preincubated at 37° C. for 1 h, then chilled on ice for 5 min. Microtubule assembly was initiated by addition of guanosine triphosphate (0.1 mM), and incubation at 37° C. Assembly was followed turbidimetrically at 350 nm for 20 minutes (min) using a temperature-controlled cell in a Cary 2200 spectrophotometer. Since microtubules undergo depolymerization at 0° C., assembly was confirmed by measuring the reduction in turbidity following incubation for 30 min at 0° C. The difference in absorbance before and after incubation for 30 min at 0° C. (ΔA350) represents the extent of microtubule assembly. Inhibition of assembly was calculated by subtracting the (ΔA350) values for treatments with test compounds from the (ΔA350) for controls without test compound, and expressing this difference as a percentage of the (ΔA350) value for the control. Results including test compound number, test compound concentration in micromoles per liter (μM) and percent inhibition are set forth in Table 11.

tubulin [5] = test: Effect of preincubation time with tubulin on inhibition of microtubule assembly; type: biochemical, calf; settings: 16 μM
Experimental: as §2
Compound 14 (16 μM) was preincubated with tubulin under the conditions described in Example 4 for 0, 1, 2, 4 and 6 hours before initiating assembly by addition of guanosine triphosphate (0.1 mM), and incubation at 37° C. Inhibition of assembly was determined as in Example 4, and results including preincubation time and percent inhibition of assembly are set forth in Table 12.

[6] = Biological activity of enantiomers; settings: vs corresponding R enantiomers; test not stated

Row | SMILES | inhibition at 2 µM [1] | GI50 (Leukemia (SR)) | GI50 [2] | GI50 [3] | GI50 (Colon cancer (HCT116)) | GI50 (CNS cancer (SF539)) | GI50 (Melanoma (SKMEL-2)) | GI50 (Ovarian cancer (OVCAR8)) | GI50 (Renal cancer (CAKI1)) | Percent inhibition of microtubule assembly (tubulin [4]; 50 μM) | further results
1 | CCC(C)(NC(=O)c1cc(Cl)cc(Cl)c1)C(=O)CCl (stereo not shown) [Compound 14] | 95% | 0.83 µM | 1.98 µM | 0.72 µM | 2.31 µM | 2.1 µM | 1.94 µM | 2.79 µM | 3.83 µM | 56.3% | Normal mitotic figures in treated cells (mouse lymphoma cells; vs control): lacking in the treated cells; Number of cells with visible chromosomes (mouse lymphoma cells; vs control): produced an increase in the number of cells with visible chromosomes; Percentage of cells with visible chromosomes (mouse lymphoma cells; control 3.9): 27.4 Percentage; Percent inhibition of microtubule assembly (tubulin [5]; preincubation time 0 h): 0%; Percent inhibition of microtubule assembly (tubulin [5]; preincubation time 1 h): 5.1%; Percent inhibition of microtubule assembly (tubulin [5]; preincubation time 2 h): 22.6%; Percent inhibition of microtubule assembly (tubulin [5]; preincubation time 4 h): 57.6%; Percent inhibition of microtubule assembly (tubulin [5]; preincubation time 6 h): 87.2%
2 | CCC(C)(NC(=O)c1cc(Cl)cc(C=NOC)c1)C(=O)CCl (stereo not shown) [Compound 4] | 95% | 0.59 µM | 2.14 µM | 1.54 µM | 2.58 µM | 2.31 µM | 3.24 µM | 2.62 µM | 3.07 µM | 89.8% | 
3 | CCC(C)(NC(=O)c1cncc(Br)c1)C(=O)CCl (stereo not shown) [Compound 44] | 95% | 0.33 µM | 0.35 µM | 0.33 µM | 0.67 µM | 2.21 µM | 0.41 µM | 1.96 µM | 2.36 µM | 100.0% | 
4 | CC(C)(NC(=O)c1cc(Cl)cc(Cl)c1)C(=O)CCl [Compound 28] |  | 3.01 µM | 2.61 µM | 5.38 µM | 14.2 µM | 9.79 µM | 12.2 µM | 12.4 µM | 12.9 µM | 22.3% | inhibition at 10 µM [1]: 87%
5 | CC[C@](C)(NC(=O)c1cc(Cl)cc(Cl)c1)C(=O)CCl [S enantiomer of compound 14] |  |  |  |  |  |  |  |  |  |  | Activity of S enantiomer relative to R enantiomer [6]: more active
6 | CCC(C)(NC(=O)c1cc(C)cc(C#N)c1)C(=O)CCl (stereo not shown) [Compound 23] |  | 0.65 µM | 2.05 µM | 2.19 µM | 3.28 µM | 2.55 µM | 2.56 µM | 3.43 µM | 2.81 µM | 50.5% | inhibition at 10 µM [1]: 95%
7 | CC[C@](C)(NC(=O)c1cc(Cl)c(C)c(Cl)c1)C(=O)CCl [S enantiomer of compound 32] |  |  |  |  |  |  |  |  |  |  | Activity of S enantiomer relative to R enantiomer [6]: more active
8 | CCC(C)(NC(=O)c1cc(Cl)cc(Cl)c1)C(=O)C(Br)Br (stereo not shown) [Compound 13] | 98% | 0.28 µM | 0.28 µM | 0.24 µM | 1.39 µM | 1.9 µM | 2.08 µM | 1.82 µM | 1.92 µM |  | Percent inhibition of microtubule assembly (tubulin [4]; 5 μM): 90.9%
